Laboratory results: article PMC10619477 (RSC Advances, 2023)
Marks after values point to notes of the source that are not given here.

Experiments:
[1] = in vitro; details: PAMPA
[2] = from PAMPA-BBB Pe
[3] = tested on: intracellular ROS in H2O2-injured SY5Y cells; assay: Intracellular ROS levels; type: cell-based, Human; details: 0.1, 1 or 10 μM, 100 μM H2O2 24 h, DCFH-DA
[4] = tested on: intracellular GSH in H2O2-injured SY5Y cells; assay: Total glutathione; type: cell-based, Human; details: pretreatment with 10 μM, 100 μM H2O2
[5] = ABTS radical cationic decolorization assay; type: biochemical; details: read-out: ABTS (IC50); concentration that inhibits 50% of free radicals, mean ± SEM
[6] = tested on: SH-SY5Y cells; details: MTT; for Cytotoxicity on SH-SY5Y cells (in words): 0–80 μM
[7] = tested on: MMP in H2O2-incubated SY5Y cells; assay: Mitochondrial membrane potential assay; details: 10 μM, 100 μM H2O2 24 h, JC-1
[8] = DPPH radical scavenging assay; type: biochemical; details: for IC50: read-out: DPPH (IC50), mean ± SEM, three determinations; for DPPH inhibiting rate: in the presence of 0.5 mM compounds
[9] = tested on: SH-SY5Y cells exposed to 100 μM H2O2; assay: Protection of SH-SY5Y cells from H2O2-induced oxidative damage; type: cell-based, Human

Row | Papp at 16 h, 100 mg mL^−1 [1] | IC50 [5] | IC50 [8] | Molecule | Prediction (penetration into CNS) [2] | also measured
1 | 9.23 ± 0.57 ×10⁻⁶ cm/s | 10.6 ± 1.28 µM | 5.06 ± 1.34 µM | CCCCCCCC(=O)NCc1ccc(O)c(O)c1 [Compound 3k, N-(3,4-Dihydroxybenzyl)octanamide] | CNS+ (CNS+ is predicted as high BBB permeation with Pe (×10^−6 cm s^−1) > 4.33) | intracellular ROS fluorescence intensity (in words) [3]: decreased gradually; H2O2-induced decrease of intracellular GSH (in words) [4]: blocked; Cytotoxicity on SH-SY5Y cells (in words) [6]: little toxicity; H2O2-induced reduction of MMP (in words) [7]: blocked significantly; cell viability under H2O2 (in words) ([9]; 0.1, 1 or 10 μM pretreatment, 100 μM H2O2): increased dose-dependently; viability at 10 µM ([9]; Homo sapiens, SH-SY5Y, read-out: cell viability): 90 ± 5.5%
2 | 11.2 ± 0.68 ×10⁻⁶ cm/s |  |  | CCCCCCNC(=O)Cc1ccc(OC)c(OC)c1 [Compound 3g, 2-(3,4-Dimethoxyphenyl)-N-hexylacetamide] | CNS+ (CNS+ is predicted as high BBB permeation with Pe (×10^−6 cm s^−1) > 4.33) | DPPH radical scavenging activity (in words) [8]: little radical scavenging activities; DPPH inhibiting rate [8]: 12.76 ± 2.54% ^c
3 | 10.1 ± 0.34 ×10⁻⁶ cm/s | 22.7 ± 2.34 µM | 5.91 ± 0.77 µM | CCCCCCCCC(=O)NCc1ccc(O)c(O)c1 [Compound 3n, N-(3,4-Dihydroxybenzyl) nonanamide] | CNS+ (CNS+ is predicted as high BBB permeation with Pe (×10^−6 cm s^−1) > 4.33) | Cytotoxicity on SH-SY5Y cells (in words) [6]: strong growth inhibition
4 | 10.6 ± 0.38 ×10⁻⁶ cm/s |  |  | CCCCCCCCC(=O)NCc1ccc(OC)c(OC)c1 [Compound 3m, N-(3,4-Dimethoxybenzyl)nonanamide] | CNS+ (CNS+ is predicted as high BBB permeation with Pe (×10^−6 cm s^−1) > 4.33) | DPPH radical scavenging activity (in words) [8]: little radical scavenging activities; DPPH inhibiting rate [8]: 18.56 ± 2.33% ^c
5 | 7.68 ± 0.47 ×10⁻⁶ cm/s | 18.6 ± 3.03 µM | 4.49 ± 0.74 µM | CCCCCCNC(=O)Cc1ccc(O)c(O)c1 [Compound 3h, 2-(3,4-Dihydroxyphenyl)-N-hexylacetamide] | CNS+ (CNS+ is predicted as high BBB permeation with Pe (×10^−6 cm s^−1) > 4.33) | 
6 | 10.8 ± 1.03 ×10⁻⁶ cm/s |  |  | CCCCCCC(=O)NCc1ccc(OC)c(OC)c1 [Compound 3e, N-(3,4-Dimethoxybenzyl)heptanamide] | CNS+ (CNS+ is predicted as high BBB permeation with Pe (×10^−6 cm s^−1) > 4.33) | DPPH radical scavenging activity (in words) [8]: little radical scavenging activities; DPPH inhibiting rate [8]: 27.33 ± 2.88% ^c
7 |  | 13.8 ± 2.87 µM | 8.7 ± 1.75 µM | O=c1c(O)c(-c2ccc(O)c(O)c2)oc2cc(O)cc(O)c12 [Quercetin, reference compound] |  | 
8 |  | 30.9 ± 2.79 µM | 185 ± 9.86 µM | CCCCCCCCNC(=O)Cc1ccc(O)c(OC)c1 [Compound 3o, 2-(4-Hydroxy-3-methoxyphenyl)-N-octylacetamide] |  | 
9 |  | 24.3 ± 3.62 µM | 67.6 ± 4.74 µM | 2-(3,4-Dimethoxyphenyl)-N-octylacetamide [Compound 3d] |  | 
10 | 6.24 ± 0.98 ×10⁻⁶ cm/s | 13.1 ± 1.47 µM | 139 ± 6.89 µM | CCCCCCNC(=O)Cc1ccc(O)c(OC)c1 [Compound 3f, N-Hexyl-2-(4-hydroxy-3-methoxyphenyl)acetamide] | CNS+ (CNS+ is predicted as high BBB permeation with Pe (×10^−6 cm s^−1) > 4.33) | 
11 |  | 13.6 ± 2.9 µM | 27.9 ± 4.55 µM | CCCCCCCC(=O)NCc1ccc(O)c(OC)c1 [Compound 3i, N-(4-Hydroxy-3-methoxybenzyl) octanamide] |  | 
12 | 6.54 ± 0.81 ×10⁻⁶ cm/s | 21.6 ± 3.69 µM | 4.14 ± 1.09 µM | CCCCCCCCNC(=O)Cc1ccc(O)c(O)c1 [Compound 3q, 2-(3,4-Dihydroxyphenyl)-N-octylacetamide] | CNS+ (CNS+ is predicted as high BBB permeation with Pe (×10^−6 cm s^−1) > 4.33) | Cytotoxicity on SH-SY5Y cells (in words) [6]: strong growth inhibition
13 | 8.45 ± 0.57 ×10⁻⁶ cm/s | 16.8 ± 2.1 µM | 7.33 ± 0.98 µM | CC(C)CCCCCCC(=O)NCc1ccc(O)c(O)c1 [Compound 3c, N-(3,4-Dihydroxybenzyl)-8-methylnonanamide] | CNS+ (CNS+ is predicted as high BBB permeation with Pe (×10^−6 cm s^−1) > 4.33) | Cytotoxicity on SH-SY5Y cells (in words) [6]: strong growth inhibition

Further lines, the molecule ahead of its results:

Row | Molecule | Papp at 16 h, 100 mg mL^−1 [1] | IC50 [5] | IC50 [8] | Prediction (penetration into CNS) [2] | also measured
14 | COc1cc(CNC(=O)CCCCCCC(C)C)ccc1O [Compound 3b, Dihydrocapsaicin] | 5.96 ± 0.78 ×10⁻⁶ cm/s | 11.3 ± 1.55 µM | 50.9 ± 4.08 µM |  | 
15 | CCCCCCCCC(=O)NCc1ccc(O)c(OC)c1 [Compound 3l, N-(4-Hydroxy-3-methoxybenzyl)nonanamide] |  | 44.2 ± 4.65 µM | 27.2 ± 3.47 µM |  | 
16 | C[C@]12CC[C@@H]3c4ccc(O)cc4CC[C@H]3[C@@H]1CC[C@@H]2O [Estradiol, reference compound] | 13.2 ± 0.51 ×10⁻⁶ cm/s |  |  |  | 
17 | CCCCCCCC(=O)NCc1ccc(OC)c(OC)c1 [Compound 3j, N-(3,4-Dimethoxybenzyl)octanamide] |  |  |  |  | DPPH radical scavenging activity (in words) [8]: little radical scavenging activities; DPPH inhibiting rate [8]: 22.72 ± 5.47% ^c
18 | COc1cc(CNC(=O)CCCC/C=C/C(C)C)ccc1O [Compound 3a, capsaicin, reference compound] |  | 16.9 ± 1.64 µM | 52.1 ± 3.21 µM |  | 
19 | Cn1c(=O)c2c(ncn2C)n(C)c1=O [Caffeine, reference compound] | 0.79 ± 0.1 ×10⁻⁶ cm/s |  |  |  | 
20 | OO [Compound H2O2, H2O2, reference compound] |  |  |  |  | inhibition in SH-SY5Y cells ([6]; H2O2 at 100 μM): 38.1 ± 7.6%; effect on SH-SY5Y cell viability (in words) ([6]; H2O2 at 25 and 50 μM): no apparent inhibitory or promotive effects; cell viability of H2O2-treated SY5Y cells ([9]; 100 μM H2O2 alone, compared with control (100%)): 63.3 ± 4.5%
21 | CCCCCCCCNC(=O)Cc1ccc(OC)c(OC)c1 [Compound 3p, 2-(3,4-Dimethoxyphenyl)-N-octylacetamide] |  |  |  |  | DPPH radical scavenging activity (in words) [8]: little radical scavenging activities; DPPH inhibiting rate [8]: 30.48 ± 3.44% ^c
